The values below come from ChEMBL document CHEMBL4138202, “Design, synthesis, biological evaluation and molecular modeling of novel 2-amino-4-(1-phenylethoxy) pyridine derivatives as potential ROS1 inhibitors” (Eur J Med Chem, 2018).

Molecules are shown by their SMILES.

Assay [1] concerns the target Proto-oncogene tyrosine-protein kinase ROS (Homo sapiens, UniProt P08922). The experiment in a line: Inhibition of recombinant human GST-tagged ROS1 expressed in baculovirus expression system by Z'LYTE assay.
For assay [2], the system named is NCI-H3122. Description: Antiproliferative activity against human NCI-H3122 cells after 48 hrs by MTT assay. As to conditions: NCI-H3122, 48 h. Background: Tetrazolium assays rely on reduction of a dye to a coloured formazan, in cell work by metabolically active cells.
The test system of assay [3] is HCC78. Description: Antiproliferative activity against human HCC78 cells after 48 hrs by MTT assay. As to conditions: HCC78, 48 h.
Assay [4] deals with Insulin-like growth factor 1 receptor (Homo sapiens) (UniProt P08069). Description: Inhibition of recombinant human His-tagged IGF1R expressed in baculovirus expression system at 1 uM by Z'LYTE assay relative to control.
In assay [5] the target is Mast/stem cell growth factor receptor Kit (Homo sapiens) (UniProt P10721). The experiment in a line: Inhibition of KIT (unknown origin) at 1 uM by Z'LYTE assay relative to control.
The target of assay [6] is Mitogen-activated protein kinase 3 (Homo sapiens) (UniProt P27361). Description: Inhibition of recombinant human GST-tagged full length MAPK3 expressed in Escherichia coli at 1 uM by Z'LYTE assay relative to control.
Assay [7] addresses Tyrosine-protein kinase ABL1 (Homo sapiens) (UniProt P00519). The experiment in a line: Inhibition of recombinant human His-tagged ABL1 expressed in baculovirus expression system at 1 uM by Z'LYTE assay relative to control.
For assay [8], the target named is CDK2/Cyclin A2 (Homo sapiens) (UniProt P24941+P20248). Description: Inhibition of recombinant human full length His-tagged CDK2/cyclin A expressed in baculovirus expression system at 1 uM by Z'LYTE assay relative to control.
For assay [9], the target named is Tyrosine-protein kinase JAK2 (Homo sapiens) (UniProt O60674). The experiment in a line: Inhibition of recombinant human GST-tagged JAK2 expressed in baculovirus expression system at 1 uM by Z'LYTE assay relative to control.
The target of assay [10] is Platelet-derived growth factor receptor alpha (Homo sapiens) (UniProt P16234). The experiment in a line: Inhibition of recombinant human GST-tagged PDGFRalpha expressed in baculovirus expression system at 1 uM by Z'LYTE assay relative to control.
Assay [11] deals with Epidermal growth factor receptor (Homo sapiens) (UniProt P00533). The experiment in a line: Inhibition of recombinant human GST-tagged EGFR expressed in baculovirus expression system at 1 uM by Z'LYTE assay relative to control.
Assay [12] addresses Hepatocyte growth factor receptor (Homo sapiens) (UniProt P08581). The experiment in a line: Inhibition of recombinant human His-tagged MET expressed in mammalian expression system at 1 uM by Z'LYTE assay relative to control.
In assay [13] the target is Leukocyte tyrosine kinase receptor (Homo sapiens) (UniProt P29376). The experiment in a line: Inhibition of recombinant human GST-tagged LTK expressed in baculovirus expression system at 1 uM by Z'LYTE assay relative to control.
Assay [14] deals with Fibroblast growth factor receptor 1 (Homo sapiens) (UniProt P11362). The experiment in a line: Inhibition of recombinant human His-tagged FGFR1 expressed in baculovirus expression system at 1 uM by Z'LYTE assay relative to control.
Assay [15] has as its target Serine/threonine-protein kinase B-raf (Homo sapiens) (UniProt P15056). The experiment in a line: Inhibition of recombinant human full length GST-tagged BRAF expressed in baculovirus expression system at 1 uM by Z'LYTE assay relative to control.
The target in assay [16] is ALK tyrosine kinase receptor (Homo sapiens, UniProt Q9UM73). The experiment in a line: Inhibition of recombinant human GST-tagged ALK expressed in baculovirus expression system by Z'LYTE assay.

The IC50 is the concentration needed to halve the response being measured. The term inhibition denotes the relative decrease from the control value, in per cent.

Sequence of Proto-oncogene tyrosine-protein kinase ROS (P08922 whole entry): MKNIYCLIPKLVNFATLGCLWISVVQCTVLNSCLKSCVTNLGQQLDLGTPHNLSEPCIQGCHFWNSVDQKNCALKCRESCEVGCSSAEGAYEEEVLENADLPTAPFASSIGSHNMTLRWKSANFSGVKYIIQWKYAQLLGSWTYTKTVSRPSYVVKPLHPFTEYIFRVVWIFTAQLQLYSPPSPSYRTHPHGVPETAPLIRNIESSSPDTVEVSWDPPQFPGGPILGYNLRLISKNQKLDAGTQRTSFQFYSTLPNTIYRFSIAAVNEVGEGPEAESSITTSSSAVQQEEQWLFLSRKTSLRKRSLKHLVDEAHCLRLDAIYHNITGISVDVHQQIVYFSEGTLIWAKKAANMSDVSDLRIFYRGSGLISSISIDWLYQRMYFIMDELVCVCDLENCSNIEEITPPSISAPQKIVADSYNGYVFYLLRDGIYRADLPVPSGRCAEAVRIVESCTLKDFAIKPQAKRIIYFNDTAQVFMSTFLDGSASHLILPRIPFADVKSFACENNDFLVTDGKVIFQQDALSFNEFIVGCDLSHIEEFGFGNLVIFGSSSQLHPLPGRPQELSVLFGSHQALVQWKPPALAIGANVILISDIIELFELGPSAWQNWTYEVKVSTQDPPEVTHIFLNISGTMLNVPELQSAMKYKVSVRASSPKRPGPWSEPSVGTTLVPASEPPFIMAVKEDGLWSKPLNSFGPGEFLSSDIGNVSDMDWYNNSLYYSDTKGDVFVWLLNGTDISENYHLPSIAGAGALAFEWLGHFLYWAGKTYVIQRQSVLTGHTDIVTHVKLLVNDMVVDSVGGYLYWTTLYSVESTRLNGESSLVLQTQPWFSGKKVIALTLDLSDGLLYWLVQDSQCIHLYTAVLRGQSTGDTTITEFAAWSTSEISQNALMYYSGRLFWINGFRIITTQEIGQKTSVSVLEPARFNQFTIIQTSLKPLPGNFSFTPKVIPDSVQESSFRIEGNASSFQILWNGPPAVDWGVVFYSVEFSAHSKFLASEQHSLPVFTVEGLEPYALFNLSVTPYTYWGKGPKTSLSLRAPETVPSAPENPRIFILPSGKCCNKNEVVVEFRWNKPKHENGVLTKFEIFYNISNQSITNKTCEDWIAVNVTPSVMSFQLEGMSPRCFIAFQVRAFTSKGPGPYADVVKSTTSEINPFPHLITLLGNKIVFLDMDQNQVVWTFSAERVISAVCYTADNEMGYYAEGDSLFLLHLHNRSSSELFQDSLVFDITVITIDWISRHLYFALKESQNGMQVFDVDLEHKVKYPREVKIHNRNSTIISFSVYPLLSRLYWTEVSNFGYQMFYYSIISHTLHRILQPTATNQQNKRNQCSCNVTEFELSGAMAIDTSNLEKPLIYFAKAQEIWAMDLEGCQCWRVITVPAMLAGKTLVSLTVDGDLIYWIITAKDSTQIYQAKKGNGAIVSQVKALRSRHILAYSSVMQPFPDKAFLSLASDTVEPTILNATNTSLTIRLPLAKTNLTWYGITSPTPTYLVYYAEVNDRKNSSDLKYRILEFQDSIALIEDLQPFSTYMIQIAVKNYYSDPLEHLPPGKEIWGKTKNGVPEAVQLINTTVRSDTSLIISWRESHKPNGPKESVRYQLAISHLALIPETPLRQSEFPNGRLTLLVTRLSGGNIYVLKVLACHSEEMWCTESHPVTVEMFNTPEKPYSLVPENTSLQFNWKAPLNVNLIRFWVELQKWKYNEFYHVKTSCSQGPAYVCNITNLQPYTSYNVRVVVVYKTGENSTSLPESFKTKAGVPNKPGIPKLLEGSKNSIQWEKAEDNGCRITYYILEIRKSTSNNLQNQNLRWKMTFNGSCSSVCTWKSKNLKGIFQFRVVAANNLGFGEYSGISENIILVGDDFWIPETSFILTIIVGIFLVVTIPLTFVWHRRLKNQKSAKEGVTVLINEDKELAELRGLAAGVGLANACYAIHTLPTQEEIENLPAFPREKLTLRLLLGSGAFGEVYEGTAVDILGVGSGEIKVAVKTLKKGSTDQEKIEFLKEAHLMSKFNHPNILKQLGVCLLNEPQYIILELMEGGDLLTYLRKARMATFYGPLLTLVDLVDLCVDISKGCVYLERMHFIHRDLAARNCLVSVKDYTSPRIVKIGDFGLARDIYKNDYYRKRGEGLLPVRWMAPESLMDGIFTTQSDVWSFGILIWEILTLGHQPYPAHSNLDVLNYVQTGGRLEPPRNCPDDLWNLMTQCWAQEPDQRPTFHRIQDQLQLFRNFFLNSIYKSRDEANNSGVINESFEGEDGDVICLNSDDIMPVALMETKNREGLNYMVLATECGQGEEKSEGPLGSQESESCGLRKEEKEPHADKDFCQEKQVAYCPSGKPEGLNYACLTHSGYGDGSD
Sequence of ALK tyrosine kinase receptor (Q9UM73 whole entry): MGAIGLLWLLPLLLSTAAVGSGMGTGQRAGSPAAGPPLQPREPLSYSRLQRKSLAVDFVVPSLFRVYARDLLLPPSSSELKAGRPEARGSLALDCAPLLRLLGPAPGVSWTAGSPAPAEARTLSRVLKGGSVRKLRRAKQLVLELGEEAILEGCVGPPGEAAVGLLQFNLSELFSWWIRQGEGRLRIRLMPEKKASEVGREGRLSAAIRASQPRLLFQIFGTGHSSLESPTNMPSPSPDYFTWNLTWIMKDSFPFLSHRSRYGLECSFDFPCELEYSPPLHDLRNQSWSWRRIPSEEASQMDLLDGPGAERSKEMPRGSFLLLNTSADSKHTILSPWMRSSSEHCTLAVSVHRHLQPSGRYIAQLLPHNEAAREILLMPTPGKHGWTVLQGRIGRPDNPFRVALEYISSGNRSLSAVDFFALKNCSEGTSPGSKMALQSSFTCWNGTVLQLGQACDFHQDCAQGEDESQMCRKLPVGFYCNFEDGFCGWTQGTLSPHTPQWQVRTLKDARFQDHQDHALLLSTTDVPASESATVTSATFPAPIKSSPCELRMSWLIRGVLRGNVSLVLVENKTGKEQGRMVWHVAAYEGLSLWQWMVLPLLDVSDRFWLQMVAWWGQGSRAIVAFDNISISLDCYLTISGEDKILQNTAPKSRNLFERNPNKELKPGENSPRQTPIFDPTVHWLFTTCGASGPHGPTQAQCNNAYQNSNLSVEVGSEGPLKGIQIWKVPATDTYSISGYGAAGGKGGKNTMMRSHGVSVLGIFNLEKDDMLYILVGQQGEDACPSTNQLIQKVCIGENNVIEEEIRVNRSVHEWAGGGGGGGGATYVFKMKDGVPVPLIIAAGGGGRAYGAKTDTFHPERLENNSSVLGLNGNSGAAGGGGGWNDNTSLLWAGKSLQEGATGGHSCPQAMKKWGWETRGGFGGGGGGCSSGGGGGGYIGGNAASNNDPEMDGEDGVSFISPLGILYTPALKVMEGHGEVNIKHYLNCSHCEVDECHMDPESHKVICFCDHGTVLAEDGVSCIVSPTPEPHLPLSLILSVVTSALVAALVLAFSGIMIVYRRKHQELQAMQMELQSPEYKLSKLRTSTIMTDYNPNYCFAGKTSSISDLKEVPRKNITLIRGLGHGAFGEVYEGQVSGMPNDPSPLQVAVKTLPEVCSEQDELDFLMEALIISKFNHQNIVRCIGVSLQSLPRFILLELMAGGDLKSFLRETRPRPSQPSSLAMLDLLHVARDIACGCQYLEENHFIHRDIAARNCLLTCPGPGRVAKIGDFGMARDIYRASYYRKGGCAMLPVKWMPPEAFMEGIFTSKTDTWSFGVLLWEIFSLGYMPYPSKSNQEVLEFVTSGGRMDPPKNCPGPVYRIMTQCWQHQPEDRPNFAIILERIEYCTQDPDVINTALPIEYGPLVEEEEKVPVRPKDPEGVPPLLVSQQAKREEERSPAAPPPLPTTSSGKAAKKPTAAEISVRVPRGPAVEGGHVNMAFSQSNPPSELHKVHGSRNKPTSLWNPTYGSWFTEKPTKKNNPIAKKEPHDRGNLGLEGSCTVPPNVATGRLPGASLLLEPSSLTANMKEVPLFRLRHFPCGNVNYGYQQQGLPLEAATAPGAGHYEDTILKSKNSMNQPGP
Sequence of Tyrosine-protein kinase ABL1 (Homo sapiens) (P00519 whole entry): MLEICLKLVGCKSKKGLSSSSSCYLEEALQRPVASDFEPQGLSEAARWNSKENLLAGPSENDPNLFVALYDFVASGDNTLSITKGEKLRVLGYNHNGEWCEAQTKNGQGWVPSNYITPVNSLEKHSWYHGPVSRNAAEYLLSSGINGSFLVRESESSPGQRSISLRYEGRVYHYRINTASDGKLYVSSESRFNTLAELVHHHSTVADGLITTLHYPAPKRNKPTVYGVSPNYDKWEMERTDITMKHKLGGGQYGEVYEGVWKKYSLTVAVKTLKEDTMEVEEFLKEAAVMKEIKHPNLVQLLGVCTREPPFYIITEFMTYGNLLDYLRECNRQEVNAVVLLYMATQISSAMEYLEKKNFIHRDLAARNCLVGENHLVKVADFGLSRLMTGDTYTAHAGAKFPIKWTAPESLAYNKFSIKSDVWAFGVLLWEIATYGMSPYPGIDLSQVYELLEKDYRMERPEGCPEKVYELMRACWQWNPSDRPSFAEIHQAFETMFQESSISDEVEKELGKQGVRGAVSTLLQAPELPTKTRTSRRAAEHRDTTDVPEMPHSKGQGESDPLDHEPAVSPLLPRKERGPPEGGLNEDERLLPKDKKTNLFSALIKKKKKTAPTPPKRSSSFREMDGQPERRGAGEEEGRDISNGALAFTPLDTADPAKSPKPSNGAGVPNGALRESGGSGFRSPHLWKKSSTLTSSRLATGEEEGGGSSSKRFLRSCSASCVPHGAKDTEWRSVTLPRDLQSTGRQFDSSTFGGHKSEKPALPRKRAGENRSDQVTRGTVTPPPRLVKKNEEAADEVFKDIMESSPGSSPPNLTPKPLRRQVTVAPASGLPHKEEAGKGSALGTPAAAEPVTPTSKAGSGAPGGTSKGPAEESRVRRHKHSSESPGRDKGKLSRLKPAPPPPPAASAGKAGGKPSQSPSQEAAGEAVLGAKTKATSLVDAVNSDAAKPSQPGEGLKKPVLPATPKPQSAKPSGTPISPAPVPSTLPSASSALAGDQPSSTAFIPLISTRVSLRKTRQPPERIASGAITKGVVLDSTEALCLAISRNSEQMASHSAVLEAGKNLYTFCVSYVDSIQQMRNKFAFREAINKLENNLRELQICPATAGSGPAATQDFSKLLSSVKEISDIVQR

Turning to `CC(Oc1ccnc(Nc2cnn(C)c2)c1)c1cccc(C(=O)NCc2ccc(C#N)cc2)c1` (stereo not given), the IC50 in assay [1] was 1.5 µM; in assay [2], 35.1 µM; in assay [3], 8.7 µM.

Take `COc1cc(CNC(=O)c2cccc(C(C)Oc3ccnc(Nc4cnn(C)c4)c3)c2)cc(OC)c1OC` (stereo not given): the IC50 in assay [1] was found to be 0.41 µM; in assay [2], 29 µM; in [3], 73.9 µM.

`CC(Oc1cccnc1Nc1cnn(C)c1)c1cccc(C(=O)NCc2ccc(Cl)c(C(F)(F)F)c2)c1` (stereo not given): the IC50 in assay [1] worked out at 6.3 µM; in assay [2], 50.7 µM; in assay [3], 48.6 µM.

As for `COc1ccc(CNC(=O)c2cccc(C(C)Oc3ccnc(Nc4cnn(C5CCNCC5)c4)c3)c2)cc1OC` (stereo not given), the inhibition in [4] came out at 9%; in assay [5] it was 3%; in assay [6], 7%; in assay [7] it was 11%; in assay [8], 2%; in assay [9], 10%. Besides, the inhibition came to 1% in [10]; 0% in assay [11]; 5% in [12]; 15% in assay [13]; 16% in assay [14]; 13% in assay [15]. For the same compound, the IC50 in [1] was 0.37 µM; in [2], 47.2 µM; in [3], 65.3 µM; in assay [16], 4.5 µM.

For the compound `CC(Oc1cccnc1Nc1cnn(C)c1)c1cccc(C(=O)NCc2ccccc2S(=O)(=O)C(C)C)c1` (stereo not given), the IC50 in [1] is 8.7 µM; in assay [2], greater than 100 µM; in assay [3], 63.1 µM; in assay [16], greater than 10 µM.

`Cc1ccc(CNC(=O)c2cccc(C(C)Oc3ccnc(NN4CCCCC4)c3)c2)cc1` (stereo not given): the IC50 in [1] is greater than 10 µM; in assay [2], 37.4 µM; in assay [3], 24.5 µM.

As to `CC(Oc1ccnc(Nc2cnn(C)c2)c1)c1cccc(C(=O)NCc2cc(F)cc(F)c2)c1` (stereo not given), the IC50 stood at 2.4 µM in assay [1], 7.6 µM in assay [2] and 13.2 µM in assay [3].

As to `CC(Oc1cccnc1Nc1cnn(C)c1)c1cccc(C(=O)NCc2ccc(F)cc2)c1` (stereo not given), the values for the half-inhibitory concentration (IC50) in [1], in assay [2] and in assay [3] were greater than 10 µM, 43.8 µM and 68.5 µM, respectively.

In the case of `COc1ccc(CNC(=O)c2cccc(C(C)Oc3ccnc(Nc4ncccn4)c3)c2)cc1OC` (stereo not given), the IC50 was 0.44 µM in assay [1], greater than 100 µM in assay [2] and greater than 100 µM in [3].

On to `COc1ccc(CNC(=O)c2cccc(C(C)Oc3ccnc(Nc4cnn(C)c4)c3)c2)cc1OC` (stereo not given), for which the IC50 in assay [1] worked out at 0.64 µM; in assay [2] it was 38.5 µM; in assay [3] it was 76.6 µM.

Consider `Cc1ccc(CNC(=O)c2cccc(C(C)Oc3cccnc3Nn3cnnc3)c2)cc1` (stereo not given), for which the IC50 in [1] was greater than 10 µM; in assay [2], 23.7 µM; in [3], 9.4 µM.

Take `Cc1ccc(CNC(=O)c2cccc(C(C)Oc3cccnc3Nc3nccs3)c2)cc1` (stereo not given): the IC50 is greater than 10 µM in assay [1], 15.3 µM in [2] and 27.1 µM in assay [3].

Consider `CC(Oc1cccnc1Nc1cnn(C)c1)c1cccc(C(=O)NCc2ccc(F)c(Cl)c2)c1` (stereo not given), for which the IC50 in assay [1] is greater than 10 µM; in assay [2], 35.7 µM; in assay [3], 7.8 µM.

Regarding `Cc1ccc(CNC(=O)c2cccc(C(C)Oc3cccnc3Nc3ncccn3)c2)cc1` (stereo not given), the IC50 was 6.2 µM in [1], greater than 100 µM in assay [2], greater than 100 µM in [3] and greater than 10 µM in [16].

Take `CC(Oc1ccnc(Nc2cnn(C)c2)c1)c1cccc(C(=O)NCc2cc(C(F)(F)F)cc(C(F)(F)F)c2)c1` (stereo not given): the IC50 in assay [1] is 7.4 µM; in assay [2], 24.7 µM; in assay [3], 9.3 µM; in assay [16], greater than 10 µM.

Consider `Cc1ccc(CNC(=O)c2cccc(C(C)Oc3ccnc(Nc4cnn(CC(C)(C)O)c4)c3)c2)cc1` (stereo not given), for which the half-maximal inhibitory concentration (IC50) is 2.4 µM in [1], greater than 100 µM in assay [2], 49.7 µM in assay [3] and greater than 10 µM in assay [16].

On to `CC(Oc1ccnc(Nc2cnn(C3CCN(C)CC3)c2)c1)c1cccc(C(=O)NCc2ccc(Cl)c(C(F)(F)F)c2)c1` (stereo not given), for which the results for the IC50 in assay [1], in assay [2] and in assay [3] were 2.3 µM, 8 µM and 7.3 µM, respectively.

Consider `CC(Oc1cccnc1Nc1cnn(C)c1)c1cccc(C(=O)NCc2ccc(OC(F)(F)F)cc2)c1` (stereo not given), for which the values for the IC50 in assay [1], in [2] and in assay [3] were greater than 10 µM, 8.3 µM and 73.9 µM, respectively.

For `Cc1ccc(CNC(=O)c2cccc(C(C)Oc3ccnc(NN4CCN(C)CC4)c3)c2)cc1` (stereo not given), the figures for the 50% inhibitory concentration (IC50) in assay [1], in [2] and in assay [3] were greater than 10 µM, 8.1 µM and 26.2 µM, respectively.

As for `CC(Oc1ccnc(NN2CCN(C)CC2)c1)c1cccc(C(=O)NCc2ccc(Cl)c(C(F)(F)F)c2)c1` (stereo not given), the values for the IC50 in [1], in assay [2] and in assay [3] were 9.1 µM, 21.7 µM and 23.5 µM, respectively.

Regarding `Cc1ccc(CNC(=O)c2cccc(C(C)Oc3ccnc(Nc4cn(C)nc4C)c3)c2)cc1` (stereo not given), the IC50 is 1.4 µM in assay [1], 13.4 µM in [2] and 17.5 µM in assay [3].

In the case of `C[C@@H](Oc1cc(-c2cnn(C3CCNCC3)c2)cnc1N)c1c(Cl)ccc(F)c1Cl` [CRIZOTINIB], the IC50 in assay [2] was found to be 0.8 µM; in assay [3], 2 µM.

Turning to `Cc1ccc(CNC(=O)c2cccc(C(C)Oc3ccnc(Nc4cnn(C)c4)c3)c2)cc1` (stereo not given), the concentration for half-maximal inhibition (IC50) in assay [1] is 1.8 µM; in [2], 7.7 µM; in assay [3] it was 8.9 µM.

For `COc1cc(Nc2cc(OC(C)c3cccc(C(=O)NCc4ccc(C)cc4)c3)ccn2)cc(OC)c1OC` (stereo not given), the IC50 in assay [1] was determined as 2.4 µM; in [2], 7.8 µM; in assay [3], 15.7 µM.

Turning to `Cc1cnc(Nc2ncccc2OC(C)c2cccc(C(=O)NCc3ccc(F)c(Cl)c3)c2)s1` (stereo not given), the IC50 in assay [1] stood at 9.6 µM; in assay [2], 8.2 µM; in assay [3], 34.7 µM.

As to `COc1cccc(CNC(=O)c2cccc(C(C)Oc3ccnc(Nc4cnn(C)c4)c3)c2)c1` (stereo not given), the IC50 in [1] was 1.8 µM; in assay [2], greater than 100 µM; in assay [3], 64.4 µM.

As for `Cc1ccc(CNC(=O)c2cccc(C(C)Oc3ccnc(Nc4nc5ccccc5[nH]4)c3)c2)cc1` (stereo not given), the IC50 in assay [1] is greater than 10 µM; in [2], 9.4 µM; in [3] it was greater than 100 µM; in [16] it was greater than 10 µM.

On to `COc1ccc(CNC(=O)c2cccc(C(C)Oc3ccnc(Nc4cnn(C5CCN(C)CC5)c4)c3)c2)cc1OC` (stereo not given), for which the IC50 in assay [1] worked out at 0.57 µM; in [2], 14.8 µM; in assay [3], 9 µM.

In the case of `Cc1ccc(CNC(=O)c2cccc(C(C)Oc3cccnc3Nc3cnn(CC#N)c3)c2)cc1` (stereo not given), the IC50 in [1] is 8.7 µM; in assay [2] it was 38.4 µM; in assay [3] it was 57.4 µM; in assay [16], greater than 10 µM.

As to `Cc1ccc(CNC(=O)c2cccc(C(C)Oc3ccnc(NN4CCOCC4)c3)c2)cc1` (stereo not given), the IC50 in assay [1] is greater than 10 µM; in assay [2], greater than 100 µM; in assay [3], 68.3 µM.

With `CC(Oc1ccnc(Nc2cnn(CC(C)(C)O)c2)c1)c1cccc(C(=O)NCc2ccc(Cl)c(C(F)(F)F)c2)c1` (stereo not given), the results for the IC50 in assay [1], in assay [2] and in [3] were 8.4 µM, 38.4 µM and greater than 100 µM, respectively.

Regarding `Cc1ccc(CNC(=O)c2cccc(C(C)Oc3cccnc3Nc3cnn(CC(C)(C)O)c3)c2)cc1` (stereo not given), the IC50 in assay [1] was 9.4 µM; in [2], 9.1 µM; in [3], 20.5 µM; in assay [16] it was greater than 10 µM.

For `Cc1ccc(CNC(=O)c2cccc(C(C)Oc3cccnc3Nc3nncs3)c2)cc1` (stereo not given), the IC50 in [1] was greater than 10 µM; in assay [2], 20.8 µM; in assay [3], 17.6 µM.

On to `Cc1ccc(CNC(=O)c2cccc(C(C)Oc3cccnc3Nc3ncc(C)s3)c2)cc1` (stereo not given), for which the IC50 in [1] is 9.4 µM; in [2] it was 8.5 µM; in [3] it was 14.8 µM; in assay [16], greater than 10 µM.

As to `COc1cccc(CNC(=O)c2cccc(C(C)Oc3cccnc3Nc3cnn(C)c3)c2)c1` (stereo not given), the figures for the IC50 in assay [1], in assay [2] and in [3] were greater than 10 µM, 49.4 µM and 78.6 µM, respectively.
